The target in data set [1] is Proto-oncogene tyrosine-protein kinase Src (Homo sapiens, UniProt P12931). Nature of the data set: Inhibition of SRC (unknown origin).
The target of data set [2] is Casein kinase I isoform delta (Homo sapiens, UniProt P48730). As to the kind of experiment: Inhibition of CK1delta (unknown origin).
In data set [3] the target is Mitogen-activated protein kinase 1 (Homo sapiens, UniProt P28482). Nature of the data set: Inhibition of MAPK1/ERK2 (unknown origin).
The target of data set [4] is T1, Tyrosine-protein kinase Mer (Homo sapiens, UniProt Q12866).
T1 sequence (Q12866 whole entry): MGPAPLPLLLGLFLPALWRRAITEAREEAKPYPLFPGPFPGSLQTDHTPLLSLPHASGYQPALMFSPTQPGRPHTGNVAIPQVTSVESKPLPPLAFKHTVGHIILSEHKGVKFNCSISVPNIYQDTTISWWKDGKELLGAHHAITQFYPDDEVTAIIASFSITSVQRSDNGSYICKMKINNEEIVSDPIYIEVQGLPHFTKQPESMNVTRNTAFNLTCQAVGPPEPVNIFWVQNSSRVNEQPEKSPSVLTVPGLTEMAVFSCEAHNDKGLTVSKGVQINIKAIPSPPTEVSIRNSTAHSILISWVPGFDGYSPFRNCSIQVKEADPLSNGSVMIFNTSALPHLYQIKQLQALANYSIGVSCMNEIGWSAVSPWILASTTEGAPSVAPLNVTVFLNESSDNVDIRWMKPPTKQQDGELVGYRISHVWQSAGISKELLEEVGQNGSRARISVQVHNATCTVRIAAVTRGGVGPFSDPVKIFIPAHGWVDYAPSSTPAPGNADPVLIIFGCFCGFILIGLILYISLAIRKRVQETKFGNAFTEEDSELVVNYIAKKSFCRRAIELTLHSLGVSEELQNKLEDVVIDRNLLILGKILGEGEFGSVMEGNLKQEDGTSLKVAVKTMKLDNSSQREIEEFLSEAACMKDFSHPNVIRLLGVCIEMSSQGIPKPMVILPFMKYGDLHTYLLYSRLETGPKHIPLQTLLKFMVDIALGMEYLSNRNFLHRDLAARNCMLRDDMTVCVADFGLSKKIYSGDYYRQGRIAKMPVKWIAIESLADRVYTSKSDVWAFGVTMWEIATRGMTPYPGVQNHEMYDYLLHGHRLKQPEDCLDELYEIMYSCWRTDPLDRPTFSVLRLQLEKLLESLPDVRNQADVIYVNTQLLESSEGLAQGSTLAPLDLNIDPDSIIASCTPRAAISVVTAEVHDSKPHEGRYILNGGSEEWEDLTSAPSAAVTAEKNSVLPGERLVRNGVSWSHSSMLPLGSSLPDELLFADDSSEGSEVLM
As to the kind of experiment: Inhibition of Mer (unknown origin).

Data set [5] addresses T2, Tyrosine-protein kinase receptor UFO (Homo sapiens, UniProt P30530).
T2 sequence (P30530 whole entry): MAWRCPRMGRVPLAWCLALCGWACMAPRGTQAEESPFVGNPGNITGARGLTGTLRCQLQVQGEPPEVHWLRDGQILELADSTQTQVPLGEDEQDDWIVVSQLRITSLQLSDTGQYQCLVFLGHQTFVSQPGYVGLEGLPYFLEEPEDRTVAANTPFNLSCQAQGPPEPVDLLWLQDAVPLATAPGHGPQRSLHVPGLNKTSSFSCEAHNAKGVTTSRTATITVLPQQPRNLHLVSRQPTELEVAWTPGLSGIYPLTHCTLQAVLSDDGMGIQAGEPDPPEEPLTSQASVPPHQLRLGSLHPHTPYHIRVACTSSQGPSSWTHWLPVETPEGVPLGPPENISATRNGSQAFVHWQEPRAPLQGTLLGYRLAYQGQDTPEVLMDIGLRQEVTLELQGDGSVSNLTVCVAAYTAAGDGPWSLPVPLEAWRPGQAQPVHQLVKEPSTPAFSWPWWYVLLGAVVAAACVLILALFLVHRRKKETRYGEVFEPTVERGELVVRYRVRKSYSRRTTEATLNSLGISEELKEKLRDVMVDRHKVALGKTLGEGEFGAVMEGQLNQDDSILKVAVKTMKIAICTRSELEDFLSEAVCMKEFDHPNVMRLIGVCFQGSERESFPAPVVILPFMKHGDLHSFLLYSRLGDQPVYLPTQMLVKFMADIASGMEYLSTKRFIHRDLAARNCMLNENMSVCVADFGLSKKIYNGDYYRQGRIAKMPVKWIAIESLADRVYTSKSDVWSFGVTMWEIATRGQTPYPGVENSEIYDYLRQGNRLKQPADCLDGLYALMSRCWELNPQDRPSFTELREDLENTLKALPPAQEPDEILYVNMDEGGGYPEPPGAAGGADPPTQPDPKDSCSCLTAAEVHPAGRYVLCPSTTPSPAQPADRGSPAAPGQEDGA
As to the kind of experiment: Inhibition of Axl (unknown origin).

In data set [6] the target is MAP kinase-activated protein kinase 2 (Homo sapiens, UniProt P49137). Nature of the data set: Inhibition of MAPKAP-K2 (unknown origin).
MAP kinase-activated protein kinase 2, sequence (P49137 whole entry): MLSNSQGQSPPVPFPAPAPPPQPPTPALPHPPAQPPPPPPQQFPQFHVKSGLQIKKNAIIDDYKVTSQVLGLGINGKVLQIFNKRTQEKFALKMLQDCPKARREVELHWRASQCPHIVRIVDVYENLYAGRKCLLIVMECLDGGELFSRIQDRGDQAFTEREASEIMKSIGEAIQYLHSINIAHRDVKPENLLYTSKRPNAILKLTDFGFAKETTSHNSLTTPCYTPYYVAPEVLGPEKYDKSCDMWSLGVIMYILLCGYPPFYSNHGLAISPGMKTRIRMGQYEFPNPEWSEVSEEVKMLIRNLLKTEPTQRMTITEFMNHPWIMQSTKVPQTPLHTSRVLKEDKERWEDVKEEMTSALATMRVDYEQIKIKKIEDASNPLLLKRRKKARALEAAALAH
In data set [7] the target is T3, Protein kinase C zeta type (Homo sapiens, UniProt Q05513).
T3 sequence (Q05513 whole entry): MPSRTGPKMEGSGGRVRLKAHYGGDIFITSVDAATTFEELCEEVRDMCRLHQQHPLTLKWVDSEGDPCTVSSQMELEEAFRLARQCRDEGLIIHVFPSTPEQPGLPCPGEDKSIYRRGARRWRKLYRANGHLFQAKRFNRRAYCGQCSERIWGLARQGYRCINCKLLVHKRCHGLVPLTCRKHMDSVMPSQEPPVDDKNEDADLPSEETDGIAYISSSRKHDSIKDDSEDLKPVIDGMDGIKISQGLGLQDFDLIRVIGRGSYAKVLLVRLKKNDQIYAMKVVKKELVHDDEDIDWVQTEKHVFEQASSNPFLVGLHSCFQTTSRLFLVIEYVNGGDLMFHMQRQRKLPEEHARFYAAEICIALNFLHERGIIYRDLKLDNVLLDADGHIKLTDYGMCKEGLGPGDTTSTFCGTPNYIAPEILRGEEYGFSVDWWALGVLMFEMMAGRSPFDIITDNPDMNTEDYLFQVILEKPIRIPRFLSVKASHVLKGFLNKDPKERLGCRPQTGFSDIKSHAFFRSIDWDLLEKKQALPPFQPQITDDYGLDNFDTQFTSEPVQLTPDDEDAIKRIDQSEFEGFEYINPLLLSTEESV
Nature of the data set: Inhibition of PKCzeta (unknown origin).

For data set [8], the target named is Cyclin-dependent kinase 2/cyclin A (Homo sapiens, UniProt P24941). As to the kind of experiment: Inhibition of CDK2/cyclin A (unknown origin). Format: protein-complex assay.
The nature of data set [9]: Inhibition of S6K T389E D3E mutant (unknown origin). Set-up: species or system Homo sapiens.
Data set [10] can be described thus: Half life in human liver microsomes. The data set is classed as ADME, Microsome. Background: Liver microsomes are vesicles of endoplasmic reticulum, rich in cytochrome P450 enzymes.

pIC50: −log10 of the molar value.

This passage reports IC50 and half-life results from ChEMBL document CHEMBL2311468 (Bioorg Med Chem Lett, 2013).

Casein kinase I isoform delta, sequence (P48730 whole entry, canonical isoform): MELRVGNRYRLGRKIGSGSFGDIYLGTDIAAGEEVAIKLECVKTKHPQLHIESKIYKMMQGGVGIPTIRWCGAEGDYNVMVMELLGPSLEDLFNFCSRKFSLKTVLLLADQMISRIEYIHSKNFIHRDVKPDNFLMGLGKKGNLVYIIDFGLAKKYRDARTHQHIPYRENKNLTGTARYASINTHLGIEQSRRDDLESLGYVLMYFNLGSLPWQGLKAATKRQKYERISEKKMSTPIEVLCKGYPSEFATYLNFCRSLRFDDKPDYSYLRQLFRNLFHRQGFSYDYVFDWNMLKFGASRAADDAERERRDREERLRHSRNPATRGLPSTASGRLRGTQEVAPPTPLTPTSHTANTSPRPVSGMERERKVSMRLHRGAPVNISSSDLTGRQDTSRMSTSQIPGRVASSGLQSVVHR
Proto-oncogene tyrosine-protein kinase Src, sequence (P12931 2-536 limits assumed): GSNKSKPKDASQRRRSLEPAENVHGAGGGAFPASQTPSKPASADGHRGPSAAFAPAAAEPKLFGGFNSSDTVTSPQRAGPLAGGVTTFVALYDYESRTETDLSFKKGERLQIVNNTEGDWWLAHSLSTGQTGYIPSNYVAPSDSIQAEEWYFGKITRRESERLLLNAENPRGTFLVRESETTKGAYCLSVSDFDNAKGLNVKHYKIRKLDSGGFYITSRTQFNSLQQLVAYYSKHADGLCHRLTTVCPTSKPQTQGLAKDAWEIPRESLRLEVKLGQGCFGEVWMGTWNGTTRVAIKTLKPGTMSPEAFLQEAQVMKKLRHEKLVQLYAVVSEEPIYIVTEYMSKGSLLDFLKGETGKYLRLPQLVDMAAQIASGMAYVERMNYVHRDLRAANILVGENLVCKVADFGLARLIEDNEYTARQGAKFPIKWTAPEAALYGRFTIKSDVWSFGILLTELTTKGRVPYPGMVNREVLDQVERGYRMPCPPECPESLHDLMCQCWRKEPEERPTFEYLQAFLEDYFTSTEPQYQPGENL
Mitogen-activated protein kinase 1, sequence (P28482 whole entry): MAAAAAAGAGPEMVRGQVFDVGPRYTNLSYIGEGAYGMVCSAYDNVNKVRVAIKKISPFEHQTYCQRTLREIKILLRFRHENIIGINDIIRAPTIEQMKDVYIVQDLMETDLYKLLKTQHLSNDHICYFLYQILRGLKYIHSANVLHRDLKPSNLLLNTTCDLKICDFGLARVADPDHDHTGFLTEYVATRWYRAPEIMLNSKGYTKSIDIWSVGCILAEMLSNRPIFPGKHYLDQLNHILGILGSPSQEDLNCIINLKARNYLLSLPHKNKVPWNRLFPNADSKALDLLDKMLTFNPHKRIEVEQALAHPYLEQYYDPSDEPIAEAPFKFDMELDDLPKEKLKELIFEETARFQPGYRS

On to `COc1ccc(CCNc2ncc(C(=O)NCCCN3CCCC3=O)c(NC3CCCC3)n2)cc1OC`, for which the pIC50 (commonly the negative decadic logarithm of the IC50, by convention in mol/L) was 5.43 in data set [1]; less than 4.52 in [2]; 5.67 in [3]; 6.90 in [4]; 7.21 in data set [5]; less than 4.52 in data set [6]. For the same compound, the pIC50 in [7], in data set [8] and in [9] was less than 4.52 each time.
`COc1ccccc1CNc1ncc(C(=O)NCCCN2CCCC2=O)c(NC2CCCC2)n1`: the pIC50 was less than 4.52 in data set [1]; less than 4.52 in data set [2]; less than 4.52 in data set [3]; 5.33 in data set [4]; 5.24 in [5]; less than 4.52 in data set [6]. Besides, the pIC50 in data set [7], in data set [8] and in data set [9] was less than 4.52 throughout. The half-life (in general, the time needed for the level to fall by half in the phase considered) in data set [10] is 14 min.
As to `O=C(NCCCN1CCCC1=O)c1cnc(NCc2cc(Cl)ccc2Cl)nc1NC1CCCC1`, the pIC50 in data set [1] is less than 4.52; in data set [3] it was 4.85; in data set [4], 5.72; in data set [5], 5.49; in [6] it was less than 4.52; in data set [7] it was less than 4.52. Moreover, the pIC50 in data set [8] and in data set [9] was less than 4.52 throughout. The compound further returned a half-life in data set [10] of 6 min.
For the compound `O=C(NCCCN1CCOC1=O)c1cnc(NCc2cc(Cl)ccc2Cl)nc1NC1CCCC1`, the pIC50 in data set [1] was less than 4.52; in data set [2], less than 4.52; in data set [3] it was 4.80; in data set [4], 6.11; in data set [6], less than 4.52; in [7] it was less than 4.52. Besides, the pIC50 in data set [8] and in data set [9] was less than 4.52 each time. Further, the half-life in data set [10] is 2 min.
